Experimental data taken from US20090312352A1 (priority 2004, published 2009).

What was measured:
Assay in all cases: biochemical
YopH [1] = target: T1, YopH (Yersinia pestis, UniProt O68720); type: biochemical
YopH [2] = target: T1, YopH
PTP 1B = PTP 1B (Homo sapiens, UniProt P18031)
TCPTP = TCPTP (Homo sapiens, UniProt P17706)
LAR = LAR (Homo sapiens, UniProt P10586)
CD45 = CD45 (Homo sapiens, UniProt P08575)
VHR = VHR (Homo sapiens, UniProt P51452)
VH1 = VH1 (Vaccinia virus, UniProt P07239)
VHX = VHX (Homo sapiens, UniProt Q9NRW4)
HePTP = HePTP (Homo sapiens, UniProt P35236)
LMPTP B = LMPTP B (Homo sapiens, UniProt P24666)
YopH [3] = target: T1, YopH; type: binding

Cc1cc2nc3s/c(=C\c4ccc(-c5ccc(O)c(C(=O)O)c5)o4)c(=O)n3c2cc1C [Compound 5670901]
Ki (YopH [1]; Ki): 0.92 µM
Ki (YopH [1]; Ki(c)): 0.922 µM
Ki (YopH [1]; Ki(u)): 8.3 µM
IC50 (YopH [2]): 2 µM
IC50 (PTP 1B): 7 µM
IC50 (TCPTP): 11 µM
IC50 (LAR): 7.7 µM
IC50 (CD45): 2.5 µM
IC50 (VHR): 21.2 µM
IC50 (VH1): > 250 µM
IC50 (VHX): > 250 µM
IC50 (HePTP): 32.6 µM
IC50 (LMPTP B): > 250 µM
Kd (YopH [3]): 0.54 µM

O=C(Cn1nnc(-c2ccccc2)n1)N/N=C/c1ccc(-c2ccc(O)c(C(=O)O)c2)o1 [Compound 5680029]
Ki (YopH [1]; Ki(c)): 2.8 µM
Ki (YopH [1]; Ki(u)): 8.9 µM
IC50 (YopH [2]): 5.1 µM
IC50 (PTP 1B): 14.3 µM
IC50 (TCPTP): 22.7 µM
IC50 (LAR): 35.8 µM
IC50 (CD45): 15.1 µM
IC50 (VHR): 31.6 µM
IC50 (VH1): > 250 µM
IC50 (VHX): 34.9 µM
IC50 (HePTP): 47.9 µM
IC50 (LMPTP B): > 250 µM
Kd (YopH [3]): 1.04 µM

COc1ccc(C2=CC(=O)C=CC2=O)cc1 [Compound 5760449]
Ki (YopH [1]; Ki(c)): 6.52 ± 1.19 µM
Ki (YopH [1]; Ki(u)): 8.02 ± 0.589 µM

CCN1C(=O)/C(=C\c2ccc(-c3ccc(O)cc3)o2)SC1=S [Compound 5667408]
Ki (YopH [1]; Ki(c)): 38.6 µM
Ki (YopH [1]; Ki(u)): 55.7 µM

O=C(O)c1cc(-c2ccc(C=C3C(=O)c4ccccc4C3=O)o2)ccc1O [Compound 5378650]
Ki (YopH [1]; Ki(c)): 3.2 µM

O=C1NC(=S)S/C1=C/c1ccc(-c2ccc(C(=O)O)cc2)o1 [Compound 5660015]
Ki (YopH [1]; Ki(c)): 19.7 µM

O=C(O)c1cc(-c2ccc(/C=N/n3cnnc3)o2)ccc1O [Compound 5381181]
Ki (YopH [1]; Ki(c)): 3.73 µM

O=C1NC(=O)/C(=C\c2ccc(-c3cccc([N+](=O)[O-])c3)o2)S1 [Compound 5376305]
Ki (YopH [1]; Ki(u)): 50 µM

O=C1NC(=S)S/C1=C\c1ccc(-c2cc(C(=O)O)ccc2Cl)o1 [Compound 6431206]
Ki (YopH [1]; Ki(c)): 16.2 µM

Cc1cc(C(=O)O)ccc1-c1ccc(/C=C2\SC(=S)NC2=O)o1 [Compound 6338530]
Ki (YopH [1]; Ki(c)): 11.4 µM
Ki (YopH [1]; Ki(u)): 84.2 µM

Cc1cc(C)c2nc3s/c(=C\c4ccc(-c5ccc(O)c(C(=O)O)c5)o4)c(=O)n3c2c1 [Compound 5675844]
Ki (YopH [1]; Ki): 8.8 µM
Ki (YopH [1]; Ki(c)): 8.82 µM
Ki (YopH [1]; Ki(u)): 10.9 µM

O=C1NC(=O)/C(=C\c2ccco2)S1 [Compound 5377816]
YopH inhibition (in words) (YopH [1]): complete loss of YopH inhibition

O=C1NC(=S)NC(=O)C1=Cc1ccc(-c2ccc(C(=O)O)c(O)c2)o1 [Compound 5557271, 4-(5-((tetrahydro-4,6-dioxo-2-thioxopyrimidin-5(6H)-ylidene)methyl)furan-2-yl)-salicylic acid]
fold lower inhibitory constant than salicylic acid alone (YopH [1]): 2667 fold
Ki (YopH [1]; Ki): 0.33 µM
Ki (YopH [1]; Ki(c)): 0.33 µM
IC50 (YopH [2]): 1.4 µM
IC50 (PTP 1B): 9.7 µM
IC50 (TCPTP): 11 µM
IC50 (LAR): 10.9 µM
IC50 (CD45): 1.7 µM
IC50 (VHR): 34.7 µM
IC50 (VH1): > 250 µM
IC50 (VHX): > 250 µM
IC50 (HePTP): 32.4 µM
IC50 (LMPTP B): > 250 µM
Kd (YopH [3]): 0.33 µM

CSCCC(C(=O)O)N1C(=O)/C(=C\c2ccc(-c3ccc([N+](=O)[O-])cc3)o2)SC1=S (centres unmarked) [Compound 5850330]
Ki (YopH [1]; Ki(c)): 9.78 ± 3.32 µM
IC50 (YopH [2]): 11.5 µM
IC50 (PTP 1B): 38.8 µM
IC50 (TCPTP): 197 µM
IC50 (LAR): 20.8 µM
IC50 (CD45): 38.7 µM
IC50 (VHR): 49 µM
IC50 (VH1): > 250 µM
IC50 (VHX): 106 µM
IC50 (HePTP): 95.9 µM
IC50 (LMPTP B): > 300 µM

O=Cc1ccc(-c2ccc(C(=O)O)c(O)c2)o1 [Compound 8164075]
YopH inhibition (in words) (YopH [1]): still capable of inhibiting YopH in the low micromolar range
Ki (YopH [1]; Ki(c)): 7.89 µM
Ki (YopH [1]; Ki(u)): 61.2 µM

O=C1C=CC(=O)C(c2ccc(C(=O)O)cc2)=C1 [4-(3,6-dioxocyclohexa-1,4-dienyl)benzoic acid]
time-dependence of inhibition (YopH [1]): clearly showed a time-dependent inhibition

COc1ccc(-c2ccc(/C=C3\SC(=S)NC3=O)o2)cc1[N+](=O)[O-] [Compound 6701338]
Ki (YopH [1]; Ki(c)): 6.53 µM
Ki (YopH [1]; Ki(u)): 9.8 µM

O=C1NC(=O)C(=Cc2ccc(-c3ccc(O)c(C(=O)O)c3)o2)C(=O)N1 [Compound 5377894]
fold higher Ki value (YopH [1]): 12.5 fold
Ki (YopH [1]; Ki): 4.1 µM
Ki (YopH [1]; Ki(c)): 4.13 µM

c1ccc(Nc2nc(-c3ccccc3)[n+](-c3ccccc3)s2)cc1 [Compound 5858065]
Ki (YopH [1]; Ki(c)): 1.87 ± 0.924 µM
Ki (YopH [1]; Ki(u)): 2.57 ± 0.563 µM

N=C1NC(=O)/C(=C\c2ccc(-c3cccc(C(=O)O)c3)o2)S1 [Compound 5377688]
Ki (YopH [1]; Ki(c)): 19.2 µM

O=C(O)c1cccc(-c2ccc(/C=C3\SC(=S)N(Cc4ccccc4)C3=O)o2)c1 [Compound 5680282]
Ki (YopH [1]; Ki(c)): 17.7 µM
Ki (YopH [1]; Ki(u)): 42.8 µM

O=C1NC(=O)/C(=C/c2ccc(-c3ccc(O)c(C(=O)O)c3)o2)S1 [Compound 5842540]
Ki (YopH [1]; Ki(c)): 1.13 ± 0.198 µM
Ki (YopH [1]; Ki(u)): 14.1 ± 4.21 µM
IC50 (YopH [2]): 3.9 µM
IC50 (PTP 1B): 12 µM
IC50 (TCPTP): 30.2 µM
IC50 (LAR): 12.2 µM
IC50 (CD45): 5.7 µM
IC50 (VHR): 27.5 µM
IC50 (VH1): > 250 µM
IC50 (VHX): 38.5 µM
IC50 (HePTP): 34.5 µM
IC50 (LMPTP B): 215 µM
Kd (YopH [3]): 1.34 µM

O=C1NC(=S)S/C1=C\c1ccc(-c2cc([N+](=O)[O-])ccc2O)o1 [Compound 5740279]
Ki (YopH [1]; Ki(c)): 17.1 µM
Ki (YopH [1]; Ki(u)): 16.5 µM

O=C(O)c1ccccc1O [salicylic acid, reference compound]
Ki (YopH [1]; Ki): 882 µM

Cc1ccc(-c2ccc(/C=C3\SC(=S)NC3=O)o2)c([N+](=O)[O-])c1 [Compound 6145062]
Ki (YopH [1]; Ki(u)): 94.1 µM
